Experiments:
mdx mice [1] = assay: Forefoot grip strength of mdx mice (symptom evaluation); assay type: in vivo, mouse; conditions: 4 weeks old, oral, 30 mg/kg for 5 days, solvent group showed no significant change (FIG. 1, right)
Protocol: (§1) Muscular dystrophy mouse: mdx (C57Bl/10 ScSn; available from JAX Laboratories)
(§2) A solvent (0.5% methylcellulose solution) or test compound 1 was orally administered to mdx mice, 4 weeks old, for 5 days at a dose of 30 mg/kg. Using a metabolism cage for mice, urine was collected over the course of about 12 hours before the administration of test compound 1 and 5 days after the administration. For comparison, urine was also collected from wild-type mice of the same weeks old and the same lineage used as a control. The creatinine concentration in urine was measured using a measurement kit (L-type Wako CRE M, Wako Pure Chemical Industries, Ltd.).
For the symptom evaluation of the mdx mice, the forefoot grip strength was measured using a grip dynamometer for mice (traction meter; BrainSienceldea). Each measurement was made in 2 min, and the mean value of five trials was calculated.

mdx mice [2] = assay: Urine Tetranor-PGDM concentration in mdx mice (HPLC-MS/MS); assay type: in vivo, mouse; conditions: oral, 30 mg/kg for 5 days (FIG. 1, left)
Protocol: as §1
as §2, with “Ltd.). […]” for “Ltd.).”
The pretreated urine sample was used for the measurement of Tetranor-PGDM levels. […] MRM (Multiple Reaction Monitoring) was used for quantification. In this technique, only the true parent ions are specifically selected from the mass of the parent ions (precursor ion) and of the fragment ions resulting from CID (collision-induced dissociation), and the parent ions are accurately quantified from the area of the selected ions. […] The fragment ions are then isolated in a second mass analyzer (Q3), and detected at the detector provided downstream. […] Area calculations were performed for the peaks originating from the Tetranor-PGDM in the resulting mass chromatogram, and each peak was quantified from the standard curve created from the standard sample. […]

CXMDJ [3] = assay: Symptom scores of muscular dystrophy dog CXMDJ; assay type: in vivo
CXMDJ [4] = assay: Urine Tetranor-PGDM concentration in muscular dystrophy dog CXMDJ (HPLC-MS/MS); assay type: in vivo
From the text: Muscular dystrophy dog: CXMDJ (CXMDJ; available from National Center of Neurology and Psychiatry)
CXMDJ was orally administered with a solvent (0.5% methylcellulose solution) or test compound 2 for about 1 year, followed by the administration of test compound 2 for the solvent-administrated dog, and the solvent for the test compound 2-administered dog. Urine was collected before switching from the solvent to test compound 2, and from test compound 2 to the solvent. Urine was collected over time after the administered solution was switched. For comparison, urine was also collected from normal beagles used as a control.
The urine (200 μL) collected from the mice or dogs was mixed with 5 ng of deuterium-labeled Tetranor-PGDM-d6 (Cayman Chemical) used as internal standard. The volume was adjusted to 2 mL with purified water, and pH was adjusted to 3. The urine was then injected to a Sep-Pak Vac C18 cartridge (Waters) equilibrated with acetonitrile (5 mL) and purified water (5 mL). The sample was washed with a 10% acetonitrile solution (5 mL) prepared using purified water, and with hexane (10 mL), and eluted with ethyl acetate (5 mL) before being dried under a stream of nitrogen. The residue was dissolved in a 10% acetonitrile solution (100 μL) prepared using purified water, and used as a measurement sample.
The pretreated urine sample was used for the measurement of Tetranor-PGDM levels. […] MRM (Multiple Reaction Monitoring) was used for quantification. In this technique, only the true parent ions are specifically selected from the mass of the parent ions (precursor ion) and of the fragment ions resulting from CID (collision-induced dissociation), and the parent ions are accurately quantified from the area of the selected ions. […] The fragment ions are then isolated in a second mass analyzer (Q3), and detected at the detector provided downstream. Tetranor-PGDM (mass number 328) was detected by using any of the ions with a m/z (mass number charge) of 155, 143, and 109 produced by further decomposing the product ions with a m/z of 327 by CID (collision-induced dissociation). The internal standard Tetranor-PGDM-d6 (mass number 334) was detected by using any of the product ions with a m/z (mass number÷charge) of 161, 149, and 109 produced by further decomposing the product ions with a m/z of 333 by CID (collision-induced dissociation). […] Area calculations were performed for the peaks originating from the Tetranor-PGDM in the resulting mass chromatogram, and each peak was quantified from the standard curve created from the standard sample. In the quantification, correction was made by using the area value of the peak originating from the Tetranor-PGDM-d6 introduced as the internal standard for the correction of the extraction efficiency and ionization efficiency in each analysis.

[5] = CXMDJ switched to solvent after about 1 year of oral test compound 2 (FIG. 2, left)
[6] = CXMDJ switched to the inhibitor after about 1 year of oral solvent (FIG. 2, right)

Structure (SMILES)	forefoot grip strength (mdx mice [1])	Tetranor-PGDM concentration in urine (mdx mice [2])	symptom scores (CXMDJ [3]; [5])	symptom scores (CXMDJ [3]; [6])	Tetranor-PGDM concentration in urine (CXMDJ [4]; CXMDJ dog orally administered with test compound 2, compared with CXMDJ dog (Table 1))	urine Tetranor-PGDM concentration (CXMDJ [4]; [5])	urine Tetranor-PGDM concentration (CXMDJ [4]; [6])	Tetranor-PGDM concentration (CXMDJ [4]; urine of HPGDS inhibitor-administered CXMDJ dog (CXMDJ dog without inhibitor 27.8)) [ng/mL]
c1ccc(C(OC2CCN(CCCc3nnn[nH]3)CC2)c2ccccc2)cc1 [Test compound 1, 4-benzhydryloxy-1-{3-(1H-tetrazol-5-yl)-propyl}piperidine]	significantly increased	significantly lower						
CON(C)C(=O)c1[nH]c(C)c(-c2nc3ccc(C(=O)c4ccccc4)cc3[nH]2)c1C [Test compound 2]			worsened	improved	decreased	increased	decreased	17.9
